Calls of active or inactive are those of the source. No cut-off for these calls is given here.
Tests used:
Oryza sativa [1] = test: Induction of disease resistant in three-leaf stage of Oryza sativa (rice) plant against Xanthomonas oryzae pv. oryzae-induced leaf blight after 7 days; assay type: functional, organism-based
Oryza sativa [2] = test: Induction of disease resistant in three-leaf stage of Oryza sativa (rice) plant against Xanthomonas oryzae pv. oryzae-induced leaf blight at 5 mg/pot after 7 days; assay type: functional
Oryza sativa [3] = test: Induction of PBZ1 gene expression in three-leaf stage of Oryza sativa (rice) plant leaf after 5 days by Northern blot analysis; assay type: functional, organism-based
[4] = tested on: Xanthomonas oryzae pv. oryzae; test: Antibacterial activity against Xanthomonas oryzae pv. oryzae up to 1 mg/ml after 48 hr; assay type: functional, organism-based
Oryza sativa [5] = test: Induction of disease resistant in three-leaf stage of Oryza sativa (rice) plant against Xanthomonas oryzae pv. oryzae-induced leaf blight at 0.05 to 0.5 mg/pot after 7 days; assay type: functional, organism-based
Oryza sativa [6] = test: Induction of disease resistant in three-leaf stage of Oryza sativa (rice) plant against Xanthomonas oryzae pv. oryzae-induced leaf blight at 0.05 to 5 mg/pot after 7 days; assay type: functional, organism-based

Row | Structure (SMILES) | Activity (Oryza sativa [1]) | Activity (Oryza sativa [2]) [%] | Activity (Oryza sativa [3]) | Activity [4] | Activity (Oryza sativa [5]) | Activity (Oryza sativa [6])
1 | Cn1nc(Cl)cc1C(=O)O [3-CHLORO-1-METHYL-1H-PYRAZOLE-5-CARBOXYLIC ACID] | Dose-dependent effect | 99.5 | Dose-dependent effect | inactive | Active | 
2 | CSC(=O)c1cccc2nnsc12 |  |  | Dose-dependent effect |  |  | Active
3 | C=CCOC1=NS(=O)(=O)c2ccccc21 |  |  | Dose-dependent effect |  |  | Active
4 | N#CCNC(=O)c1ccnc(Cl)c1 |  |  | Dose-dependent effect |  |  | 

Reference: ChEMBL document CHEMBL3045433, “Induction of Resistance against Rice Bacterial Leaf Blight by 3-Chloro-1-methyl-1H-pyrazole-5-carboxylic Acid” (2005)
